Values after ≈ are worked out from the molar mass of the structure shown.
Experiment: Solubility in 0.1 N HCl
Assay type: physicochemical
Details: simulated gastric fluid

For `C=CC(=O)Nc1cc(N2CCN(CC)CC2)ccc1Nc1cc(N(C)C(=O)Nc2c(Cl)c(OC)cc(OC)c2Cl)ncn1` [Compound 108, N-(2-((6-(3-(2,6-dichloro-3,5-dimethoxyphenyl)-1-methylureido)pyrimidin-4-yl)amino)-5-(4-ethylpiperazin-1-yl)phenyl)acrylamide], which solubility is on record?
The solubility was 5200 µg/mL (≈ 8.26 mM).
